{
  "source": "the NIST ThermoML archive (doi:10.1021/je800446c)",
  "note": "Numbers after ± are expanded uncertainties.",
  "data": [
    {"conditions": "298.15 K; 101.33 kPa; Liquid; Pycnometric method", "units": {"mass density": "kg/m3"}, "values": [
      {"smiles": "CCCCO", "note": "[butan-1-ol]", "mass density": "805.85 ± 0.72"},
      {"smiles": "CCC(C)O", "note": "(stereo unspecified) [butan-2-ol]", "mass density": "802 ± 1"},
      {"smiles": "CCO", "note": "[ethanol]", "mass density": "785.35 ± 0.71"},
      {"smiles": "CO", "note": "[methanol]", "mass density": "786.57 ± 0.71"},
      {"smiles": "CCCO", "note": "[propan-1-ol]", "mass density": "799.98 ± 0.72"},
      {"smiles": "CC(C)O", "note": "[propan-2-ol]", "mass density": "781.35 ± 0.7"}
    ]}
  ]
}
